Experimental data taken from patent US8575158B2, “1-phenyl-substituted heterocyclyl derivatives and their use as prostaglandin D2 receptor modulators” (Actelion Pharmaceuticals Ltd., priority 2010, dated 2013).
pIC50: −log10 of the molar value.

Target: T1, hCRTH2 receptor (Homo sapiens, UniProt Q9Y5Y4)
T1 construct: expressed in transfected cells; host or cells: HEK293
T1 sequence (Q9Y5Y4 1-395): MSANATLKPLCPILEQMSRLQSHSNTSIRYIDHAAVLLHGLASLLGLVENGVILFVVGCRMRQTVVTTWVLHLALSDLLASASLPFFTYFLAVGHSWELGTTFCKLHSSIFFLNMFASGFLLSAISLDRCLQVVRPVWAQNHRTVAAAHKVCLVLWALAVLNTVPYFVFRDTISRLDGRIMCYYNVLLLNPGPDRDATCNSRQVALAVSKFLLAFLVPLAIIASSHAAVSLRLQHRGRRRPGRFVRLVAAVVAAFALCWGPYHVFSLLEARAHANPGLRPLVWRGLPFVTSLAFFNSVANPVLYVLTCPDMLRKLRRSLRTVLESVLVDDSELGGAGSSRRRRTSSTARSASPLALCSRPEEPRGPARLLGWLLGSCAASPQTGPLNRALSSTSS
Assay: Radioligand displacement assay (3H-PGD2) on hCRTH2 receptor membranes
Format: binding
Settings: antagonistic activity

[1] = 3H-PGD2 displacement on HEK293-hCRTH2 membrane fragments
[2] = 3H-PGD2 radioligand displacement, HEK293-hCRTH2 membranes

O=C(O)COc1ccc(F)cc1C1c2ccccc2CCN1C(=O)CN1Cc2ccccc2C1 (racemic) [Example 63, (±)-{2-[2-(2-1,3-Dihydro-isoindol-2-yl-acetyl)-1,2,3,4-tetrahydro-isoquinolin-1-yl]-4-fluoro-phenoxy}-acetic acid]
pIC50 [1]: 6.06

COc1cccc([C@@H]2C[C@H]2C(=O)N2CCc3ccccc3C2c2cc(Cl)ccc2OCC(=O)O)c1 (mixture of isomers) [Example 425]
pIC50 [2]: 7.51

O=C(O)COc1ccc(Cl)cc1C1c2ccccc2CCN1C(=O)COc1cncc(F)c1 (racemic) [Example 478]
pIC50 [2]: 6.63

Cc1ncc(COC(=O)N2CCc3cc(F)ccc3[C@H]2c2cc(Cl)ccc2OCC(=O)O)s1 [Example 328, (S)-1-(2-Carboxymethoxy-5-chloro-phenyl)-6-fluoro-3,4-dihydro-1H-isoquinoline-2-carboxylic acid 2-methyl-thiazol-5-ylmethyl ester]
pIC50 [2]: 8.49

O=C(O)COc1ccc(Cl)cc1C1c2ccc(F)cc2CCN1C(=O)OCc1ccccc1 (racemic) [Example 226, (±)-1-(2-Carboxymethoxy-5-chloro-phenyl)-6-fluoro-3,4-dihydro-1H-isoquinoline-2-carboxylic acid benzyl ester]
pIC50 [1]: 8.28

O=C(O)COc1ccc(F)cc1C1c2cccc(Br)c2CCN1C(=O)OCc1ccccc1 (racemic) [Example 7, (±)-5-Bromo-1-(2-carboxymethoxy-5-fluoro-phenyl)-3,4-dihydro-1H-isoquinoline-2-carboxylic acid benzyl ester]
pIC50 [1]: 8.10

O=C(O)COc1ccc(Cl)cc1[C@@H]1c2ccccc2CCN1C(=O)OCc1nc2ccccc2s1 [Example 294, (S)-1-(2-Carboxymethoxy-5-chloro-phenyl)-3,4-dihydro-1H-isoquinoline-2-carboxylic acid benzothiazol-2-ylmethyl ester]
pIC50 [2]: 8.71

Cc1ccc2ccn(CCC(=O)N3CCc4ccccc4C3c3cc(Cl)ccc3OCC(=O)O)c2c1 (racemic) [Example 384]
pIC50 [2]: 7.83

O=C(O)COc1ccc(Cl)cc1C1c2ccccc2CCN1C(=O)OCC1CCCC1 (racemic) [Example 264]
pIC50 [1]: 7.88

O=C(O)COc1ccc(Cl)cc1C1c2ccccc2CCN1C(=O)OCc1cccc(C(F)(F)F)c1 (racemic) [Example 240]
pIC50 [1]: 7.73

COc1ncc(C)cc1OCC(=O)N1CCc2ccccc2C1c1cc(Cl)ccc1OCC(=O)O (racemic) [Example 484]
pIC50 [2]: 6.79

N#Cc1cccc(COC(=O)N2CCc3ccccc3C2c2cc(Cl)ccc2OCC(=O)O)c1 (racemic) [Example 257]
pIC50 [1]: 8.24

Cc1nn(CCC(=O)N2Cc3ccccc3C2c2cc(Cl)ccc2OCC(=O)O)c2cc(F)ccc12 (single isomer, unassigned) [Example 531, (4-Chloro-2-{2-[3-(6-fluoro-3-methyl-indazol-1-yl)-propionyl]-2,3-dihydro-1H-isoindol-1-yl}-phenoxy)-acetic acid]
pIC50 [2]: 7.51

Cc1cc(COC(=O)N2CCc3c(ccc(F)c3F)[C@H]2c2cc(Cl)ccc2OCC(=O)O)on1 [Example 305, (S)-1-(2-Carboxymethoxy-5-chloro-phenyl)-5,6-difluoro-3,4-dihydro-1H-isoquinoline-2-carboxylic acid 3-methyl-isoxazol-5-ylmethyl ester]
pIC50 [2]: 8.67

Cc1conc1COC(=O)N1CCc2c(ccc(F)c2F)[C@H]1c1cc(Cl)ccc1OCC(=O)O [Example 306, (S)-1-(2-Carboxymethoxy-5-chloro-phenyl)-5,6-difluoro-3,4-dihydro-1H-isoquinoline-2-carboxylic acid 4-methyl-isoxazol-3-ylmethyl ester]
pIC50 [2]: 8.51

Cc1csc(COC(=O)N2CCc3cc(F)ccc3[C@H]2c2cc(Cl)ccc2OCC(=O)O)n1 [Example 327, (S)-1-(2-Carboxymethoxy-5-chloro-phenyl)-6-fluoro-3,4-dihydro-1H-isoquinoline-2-carboxylic acid 4-methyl-thiazol-2-ylmethyl ester]
pIC50 [2]: 8.47
